In patent US20020114822A1, “Attractants for yellow jackets” (priority 2000, published 2002):

Test system: yellow jackets indigenous to the west coast (V. pensylvanica)
Assay: Trials B: trap catch on the west coast, preferred formulation against heptyl butyrate formulations
Format: in vivo
Conditions: average of two trials of each formulation
From the text: In the Examples and reported test results that follow, traps were usually hung in trees approximately four to six feet above the ground. A number of traps were used in each area where tests were made and the traps were spaced anywhere from fifteen to fifty feet apart. The traps used were commercially available traps generally of the top opening lid variety. Holes were made in the lids which were large enough to allow a yellow jacket to crawl inside the trap but small enough to confuse the yellow jackets in finding their way out. A trap of this kind is commercially available from Woodstream, Inc. sold under its trade name Yellow Jacket Trap®. The “vinegar” used in the examples was a vinegar as defined by FDA being a 5% acetic acid solution derived from apples. The “preferred formulation” used in the below reported trials was comprised of 58% apple juice concentrate; 36% vinegar; 5% poultry liver; and 1% dish detergent. Test were conducted on the west coast to compare the effectiveness of the preferred formulation of the invention with commercial formulations containing heptyl butyrate. Two trials of each formulation were made and the numbers indicate the average number of yellow jackets caught in the trials. […]

## CCCCCCCOC(=O)CCC [Heptyl Butyrate]
  average number of yellow jackets caught: 64
